Source: PMC8989888, “Development of optimized drug-like small molecule inhibitors of the SARS-CoV-2 3CL protease for treatment of COVID-19” (Nature Communications, 2022)
“And” between values parts separate entries of the source, which are not always exact repeats. Equal entries are not always repeated. Where two headings read alike, the source gives them in different places.

Experiments:
SARS-CoV-2 [1] = assay: microbe, parasite or virus in culture; format: cell-based
human chymotrypsin = assay: Chymotrypsin activity assay (Panc-1 cell lysate); format: biochemical
in vitro [2] = settings: CD-1, mouse, microsomes, pH 7.4
SARS-CoV-2 3CL protease [3] = molecular target: T1, SARS-CoV-2 3CL protease (Severe acute respiratory syndrome coronavirus 2, UniProt P0DTD1); format: binding
SARS-CoV-2 3CL protease [4] = molecular target: T1, SARS-CoV-2 3CL protease; assay: biochemical; settings: for % SARS-CoV-2 3CL activity: 200 nM protease, replicates
in vitro [5] = settings: human, plasma
in vitro [6] = settings: CD-1, mouse, plasma
SARS-CoV-2 3CL protease [7] = molecular target: T1, SARS-CoV-2 3CL protease; format: binding; remark: listed apart in the source
in vitro [8] = settings: human, microsomes, pH 7.4
[9] = Mouse liver microsome stability; settings: liver microsomes, second (control) series
[10] = system: Human coronavirus beta (strain: OC43); assay: organism not typed; format: cell-based, HCoV-OC43; settings: Huh-7, read-out: EC50, human coronavirus OC43
in vitro [11] = assay: in vitro
[12] = system: Human coronavirus alpha (strain: 229E); assay: organism not typed; format: cell-based, HCoV-229E; settings: Huh-7, read-out: EC50, human coronavirus 229E
SARS-CoV-2 [13] = assay: cell-based
[14] = system: Influenza A H1N1 (strain: California/07/2009); assay: microbe, parasite or virus in culture; format: cell-based
SARS-CoV-2 [15] = assay: microbe, parasite or virus in culture; settings: Severe acute respiratory syndrome coronavirus 2, Caco-2, 72 h, read-out: SARS-CoV-2 Caco-2 EC90
SARS-CoV-2 [16] = assay: microbe, parasite or virus in culture; format: cell-based; settings: for EC50: Severe acute respiratory syndrome coronavirus 2, 24 h, read-out: SARS-CoV-2 Huh-7ACE2 EC50
SARS-CoV-2 3CL protease [17] = molecular target: T1, SARS-CoV-2 3CL protease; assay: biochemical; settings: for kinact/KI: read-out: SARS-CoV-2 3CLpro kinact/KI
SARS-CoV-2 [18] = assay: microbe, parasite or virus in culture; format: cell-based; settings: Severe acute respiratory syndrome coronavirus 2, read-out: SARS-CoV-2 EC50
SARS-CoV-2 [19] = settings: read-out: SARS-CoV-2 antiviral EC50; cited from earlier work
[20] = Severe acute respiratory syndrome coronavirus 2, Vero C1008, 72 h, read-out: EC50, inhibition of SARS-CoV-2 viral replication
[21] = Severe acute respiratory syndrome coronavirus 2, Vero C1008, read-out: SARS-CoV-2 Vero E6 EC50
[22] = 20 nM protease, read-out: SARS-CoV-2 3CLpro IC50
[23] = Concentration of inhibitor (nM) 0.19382
[24] = Concentration of inhibitor (nM) 0.49485
[25] = Concentration of inhibitor (nM) 0.79588
[26] = Concentration of inhibitor (nM) 1.09691
[27] = Concentration of inhibitor (nM) 1.39794
[28] = Concentration of inhibitor (nM) 1.69897
[29] = Concentration of inhibitor (nM) 2
[30] = Concentration of inhibitor (nM) 2.60206
[31] = Concentration of inhibitor (nM) -0.10721
[32] = Concentration of inhibitor (nM) -0.40824

In the case of `CCOC(=O)C=CC(CC1CCNC1=O)NC(=O)C(CC(C)C)NC(=O)C(NC(=O)OCc1ccccc1)C(C)OC(C)(C)C` (stereo not drawn) [compound 4], the EC50 (SARS-CoV-2 [1]; [20]) is reported as 800 nM, the Normalized chymotrypsin activity (human chymotrypsin) is reported as 0.9372 and 0.8587 and 0.9322 and the half-life (in vitro [2]) is reported as 7.3 min. For the same molecule, the “binding to 3CL protease by mass spectrometry (in words)” value (“binding to 3CL protease” for short) (SARS-CoV-2 3CL protease [3]) was “one-to-one complex”, the “Normalized SARS-CoV-2 3CL protease activity” value (SARS-CoV-2 3CL protease [4]) was 0.006645 and 0.009809 and 0.01123 and the IC50 (SARS-CoV-2 3CL protease [4]; IC50) was 123 nM. For the same molecule, the half-life (in vitro [5]) was > 240 min, the half-life (in vitro [6]) was 10 min and the “concentration above which precipitates formed” value was “above 100 µM”. It also gave a binding stoichiometry (SARS-CoV-2 3CL protease [7]) of 0.97 ± 0.06 and a half-life (in vitro [8]) of 19 min.
For `CCOc1ccc2ccc(=O)oc2c1` [7-ethoxycoumarin], the “percent remaining (Figure S11f)” value ([9]; Time T0 min) was 100, the “percent remaining (Figure S11f)” value ([9]; Time T40 min) was 93.3574 and 91.0789 and the “percent remaining (Figure S11f)” value ([9]; Time T80 min) was 86.8345 and 92.3642.
With `CC(C)C[C@H](NC(=O)OCc1cccc(Cl)c1)C(=O)N[C@@H](C[C@@H]1CCNC1=O)C(O)S(=O)(=O)O` (stereo partly drawn) [EB46] the EC50 [10] was < 100 nM, the EC50 (SARS-CoV-2 [1]; [21]) was 2000 nM and the CC50 (in vitro [11]) was > 100 µM. The EC50 [12] was < 100 nM, the EC50 (SARS-CoV-2 [13]) was 1100 nM and the “effect on replication of Influenza H1N1 (in words)” value [14] was “no effect was observed”. The EC50 ([14]; Influenza A virus, H1N1, MDCK, read-out: Influenza A (H1N1) MDCK EC50) was > 100 µM, the IC50 (SARS-CoV-2 3CL protease [4]; [22]) was 23 nM and the “normalized activity, dose-response curve (Figure S16)” value (“normalized activity” below) (SARS-CoV-2 3CL protease [4]; [23]) was 94.5875 and 99.4983. For the same molecule, the “normalized activity” value (SARS-CoV-2 3CL protease [4]; [24]) was 85.636 and 94.5724, the “normalized activity” value (SARS-CoV-2 3CL protease [4]; [25]) was 82.4718 and 89.5097 and the “normalized activity” value (SARS-CoV-2 3CL protease [4]; [26]) was 66.6922 and 69.8061. The “normalized activity” value (SARS-CoV-2 3CL protease [4]; [27]) was 43.7931 and 49.1904, the “normalized activity” value (SARS-CoV-2 3CL protease [4]; [28]) was 26.3066 and 19.407 and the “normalized activity” value (SARS-CoV-2 3CL protease [4]; [29]) was 3.283 and 4.675. The “normalized activity” value (SARS-CoV-2 3CL protease [4]; Concentration of inhibitor (nM) 2.30103) was 2.2 and 3.398, the “normalized activity” value (SARS-CoV-2 3CL protease [4]; [30]) was 0.4514 and 0.7525 and the “normalized activity” value (SARS-CoV-2 3CL protease [4]; [31]) was 95.5867 and 98.0844. For the same molecule, the “normalized activity” value (SARS-CoV-2 3CL protease [4]; [32]) was 100, the EC90 (SARS-CoV-2 [15]) was 53 nM and the “inhibition of SARS-CoV-2 (Figure s17b dose-response, replicate values)” value (SARS-CoV-2 [16]) was 95.1515 and 86.8894 and 89.9129 and 91.3208 and 86.4116 and 95.1857 and 65.8333 and 65.5396 and 57.9806 and 19.6057 and 31.892 and 43.1913 and 11.28 and 11.1506 and 22.0558 and -4.012 and 10.0819 and 19.0531 and -4.489 and -1.7527 and 16.6924. For the same molecule, the EC50 (SARS-CoV-2 [16]) was 14 nM, the “observed inactivation rate vs compound concentration (Figure S19, replicate values)” value (SARS-CoV-2 3CL protease [17]) was 0.066 and 0.0593 and 0.077 and 0.0911 and 0.0219 and 0.0804 and 0.0309 and 0.0674 and 0.0293 and 0.0341 and 0.0137 and 0.0021 and 0.0076 and 0.0213 and 0.0308 and 0.0151 and 0.0444 and 0.0119 and the kinact/KI (SARS-CoV-2 3CL protease [17]) was 55000 M⁻¹ s⁻¹. For the same molecule, the EC50 (SARS-CoV-2 [18]) was 47 nM.
For `CC(C)C[C@H](NC(=O)OCc1ccc2ccccc2c1)C(=O)N[C@@H](C[C@@H]1CCNC1=O)C(O)S(=O)(=O)O` (stereo partly drawn) [EB56], the EC50 (SARS-CoV-2 [1]; [21]) was 4000 nM, the “binding to 3CL protease” value (SARS-CoV-2 3CL protease [3]) was “blocked the covalent binding of 10 equivalents of compound 4” and the EC50 (SARS-CoV-2 [13]) was 800 nM. The IC50 (SARS-CoV-2 3CL protease [4]; [22]) was 50 nM, the “normalized activity” value (SARS-CoV-2 3CL protease [4]; [23]) was 89.823 and 93.9936 and the “normalized activity” value (SARS-CoV-2 3CL protease [4]; [24]) was 85.2362 and 82.2757. The “normalized activity” value (SARS-CoV-2 3CL protease [4]; [25]) was 85.487 and 88.0978, the “normalized activity” value (SARS-CoV-2 3CL protease [4]; [26]) was 72.8375 and 72.1422 and the “normalized activity” value (SARS-CoV-2 3CL protease [4]; [27]) was 69.3615 and 64.0723. The “normalized activity” value (SARS-CoV-2 3CL protease [4]; [28]) was 53.5944 and 48.1904, the “normalized activity” value (SARS-CoV-2 3CL protease [4]; [29]) was 29.9078 and 31.2768 and the “normalized activity” value (SARS-CoV-2 3CL protease [4]; [30]) was 3.964 and 3.456. The “normalized activity” value (SARS-CoV-2 3CL protease [4]; [31]) was 94.804 and 91.5247, the “normalized activity” value (SARS-CoV-2 3CL protease [4]; [32]) was 100 and the “inhibition of SARS-CoV-2 (Figure s17b dose-response, replicate values)” value (SARS-CoV-2 [16]) was 102.227 and 102.618 and 99.1767 and 91.8872 and 92.3176 and 92.3719 and 59.4672 and 57.4366 and 41.3693 and 36.9002 and 26.4205 and 14.778 and 9.09 and 16.3686 and 1.374 and -4.092 and 13.2513 and -12.3171 and 9.345 and 11.9707 and 3.907. The EC50 (SARS-CoV-2 [16]) was 28 nM, the “observed inactivation rate vs compound concentration (Figure S19, replicate values)” value (SARS-CoV-2 3CL protease [17]) was 0.0572 and 0.0815 and 0.095 and 0.0426 and 0.0949 and 0.1078 and 0.0732 and 0.0307 and 0.0058 and 0.0365 and 0.0284 and 0.0434 and 0.0176 and 0.0243 and -0.00666 and 0.0205 and 0.0022 and 0.0219 and 0.0071 and 0.0016 and -0.00538 and the kinact/KI (SARS-CoV-2 3CL protease [17]) was 18300 M⁻¹ s⁻¹.
In the case of PF-00835231, the EC50 (SARS-CoV-2 [19]) is listed as 221 nM.
With `O=c1c2ccccc2[se]n1-c1ccccc1` [ebselen, reference compound] the EC50 (SARS-CoV-2 [1]; [20]) was 800 nM, the Normalized chymotrypsin activity (human chymotrypsin; 10µM compound, 100 µg Panc-1 cell lysate, replicates) was 0.8849 and 0.7812 and 0.7681 and the “binding to 3CL protease” value (SARS-CoV-2 3CL protease [3]) was “binding of multiple ebselen molecules to each 3CL protease molecule”. For the same molecule, the “% SARS-CoV-2 3CL activity” value (SARS-CoV-2 3CL protease [4]; log10[nM] 0.404879) was 89.3778% and 107.442% and 103.181%, the “% SARS-CoV-2 3CL activity” value (SARS-CoV-2 3CL protease [4]; log10[nM] 0.882) was 94.9547% and 93.3775% and 98.4402% and the “% SARS-CoV-2 3CL activity” value (SARS-CoV-2 3CL protease [4]; log10[nM] 1.35912) was 94.2663% and 88.5936% and 99.7037%. The “% SARS-CoV-2 3CL activity” value (SARS-CoV-2 3CL protease [4]; log10[nM] 1.83624) was 88.0185% and 85.2126% and 81.8055%, the “% SARS-CoV-2 3CL activity” value (SARS-CoV-2 3CL protease [4]; log10[nM] 2.31336) was 61.5633% and 42.9069% and 50.6187% and the “% SARS-CoV-2 3CL activity” value (SARS-CoV-2 3CL protease [4]; log10[nM] 2.79048) was 10.2823% and 8.339% and 9.272%. The “% SARS-CoV-2 3CL activity” value (SARS-CoV-2 3CL protease [4]; log10[nM] 3.26761) was 7.59% and 9.629% and 7.886%, the “% SARS-CoV-2 3CL activity” value (SARS-CoV-2 3CL protease [4]; log10[nM] 3.74473) was 6.213% and 7.476% and 5.15% and the “% SARS-CoV-2 3CL activity” value (SARS-CoV-2 3CL protease [4]; log10[nM] 4.22185) was 3.895% and 5.307% and 2.98%. For the same molecule, the “% SARS-CoV-2 3CL activity” value (SARS-CoV-2 3CL protease [4]; log10[nM] 4.69897) was -2.597% and 1.403% and 1.1938%, the “% SARS-CoV-2 3CL activity” value (SARS-CoV-2 3CL protease [4]; log10[nM] -0.0722425) was 107.261% and 104.787% and 112.511% and the “% SARS-CoV-2 3CL activity” value (SARS-CoV-2 3CL protease [4]; log10[nM] -0.549364) was 92.7537% and 98.0597% and 109.187%. For the same molecule, the binding stoichiometry (SARS-CoV-2 3CL protease [7]; ITC) was “didn’t reach saturation until a high molar ratio”.
For `CC(C)(C)[C@H](NC(=O)C(F)(F)F)C(=O)N1C[C@H]2[C@@H]([C@H]1C(=O)N[C@H](C#N)C[C@@H]1CCNC1=O)C2(C)C` [PF-07321332], the EC50 (SARS-CoV-2 [19]) is given as 78 nM.
